For two compounds, binding results are on record in article PMC9599246 (2022).

The assay has as its system fl-2CS1 (DNA, aptamer) GAGAGGTCAGATGATGCACTAGGGTTACGAGACCACGCGGTACCCTATGCGTGCTAC
Put plainly: ITC. Conditions: none added; 0.1 M Tris-HCl pH 7.4, 1% DMSO, 25 °C; 125 μM toxin in syringe, 5 μM aptamer in cell.

In the case of `C[C@@H]1Cc2c(Cl)cc(C(=O)N[C@@H](Cc3ccccc3)C(=O)O)c(O)c2C(=O)O1`, the binding entry is “no”.
As to `CCCC[C@@H](C)[C@@H](OC(=O)C[C@@H](CC(=O)O)C(=O)O)[C@H](C[C@@H](C)C[C@H](O)CCCC[C@@H](O)C[C@H](O)[C@H](C)N)OC(=O)C[C@@H](CC(=O)O)C(=O)O`, the binding entry is “no”.
